The source of these data is patent US6677370B2, “Compositions and uses of dictyostatin compounds” (Harbor Branch Oceanographic Institution, Inc., priority 2000, dated 2004).

Read-outs that look alike come from different tables or passages of the source.

Assay [1] deals with PANC-1 human pancreatic adenoma cells. In words: Cell cycle progression of PANC-1 cells (propidium iodide flow cytometry). In kind it is cell-based. Particulars: 100 nM, 24 hours; for percentage of cells in S phase: untreated control 5.8%; for percentage of cells in G2/M phase: untreated control 34.4%; for percentage of cells comprising the G1 population: untreated control 59.8%. As to the method:
Cell cycle studies were initiated in order to pinpoint a specific phase within the cell cycle in which dictyostatin-1 was exerting its antiproliferative effect. PANC-1 human pancreatic adenoma cells were used as cell cycle targets to compare the effects on perturbation of the cell cycle of dictyostatin-1 to the known mitotic spindle inhibitor […]. Cell cycle analyses were performed as follows: PANC-1 cells were incubated at 37° C. in 5% CO2 in air in the presence or absence of varying concentrations of dictyostatin-1 or Taxol for 24 hours.
Cells were harvested, fixed in ethanol and stained with 0.02 mg/ml of propidium iodide (P.I.) together with 0.1 mg/ml of RNAse A. This procedure permeabilizes cells and allows entry of P.I. to stain DNA (propidium iodide also stains double stranded RNA, so RNAse is included in the preparation to exclude this possibility). Stained preparations were analyzed on a Coulter EPICS ELITE with 488 nm excitation. Fluorescence measurements and resulting DNA histograms were collected from at least 3,000 P.I. stained cells at an emission wavelength of 690 nm. Raw histogram data was further analyzed using a cell cycle analysis program (Multicycle, Phoenix Flow Systems).
(In flow cytometry, cells or beads pass a laser one at a time.)

Assay [2] deals with PANC-1 human pancreatic adenocarcinoma cells. In words: Immunofluorescent detection of effects on the microtubule matrix (anti-alpha-tubulin). In kind it is cell-based. Particulars: PANC-1 cells, 100 nM, overnight. As to the method: Dictyostatin-1 was evaluated as to its effects on the microtubule network of cells using anti-alpha-tubulin monoclonal antibodies.
PANC-1 human pancreatic adenocarcinoma cells were maintained in tissue culture media (TCM=Roswell Park Memorial Institute (RPMI) medium 1640 supplemented with 100 U/ml penicillin, […] streptomycin, 60 mg/ml 1-glutamine, 18 mM HEPES, 0.05 mg/ml gentamicin and 10% fetal bovine serum) and cultured in plastic culture flasks at 37° C. in humidified air containing 5% CO2. Stock cultures of PANC-1 cells were subcultured 1:10 every 3 to 4 days. On day 1, 1.25×10^5 PANC-1 cells were sub-cultured in TCM overnight at 37° C. in 5% CO2 on 22 mm^2 coverslips in 6-well microtiter plates. On day 2, TCM was removed and replaced with various concentrations of dictyostatin-1, or Taxol, in TCM or TCM without drug (control) and incubated overnight at 37° C. in 5% CO2. On day 3, TCM was removed and cells attached to coverslips were fixed with a 3.7% formaldehyde solution in Dulbecco's PBS for 10 minutes at room temperature. Cells were permeabilized with a 2% Triton X-100 solution, 2 ml per well, for 5 minutes at room temperature and washed twice in Dulbecco's PBS prior to staining. […]

Assay [3] deals with A549 human adenocarcinoma. The assay is described as follows: Cytotoxicity, MTT assay, A549. In kind it is cell-based. Particulars: read-out: IC50 (Std dev) A549. As to the method: (§1) The cytotoxicity of dictyostatin-1 for various Taxol resistant and sensitive cell lines was compared to that of Taxol. The cell lines used were A549 human adenocarcinoma, MCF-7 human breast carcinoma, MCF-7ADR multi-drug resistant (Taxol resistant) human breast carcinoma, MES-SA human uterine carcinoma and MES-SA/DX5 Taxol resistant uterine carcinoma. All cell lines were maintained in Roswell Park Memorial Institute (RPMI) medium 1640 supplemented with 100 U/ml penicillin, […] streptomycin, 60 mg/ml 1-glutamine, 18 mM HEPES, 0.05 mg/ml gentamicin (Life Technologies, Gaithersburg, Md.) and 10% fetal bovine serum and cultured in plastic tissue culture flasks at 37° C. in humidified air containing 5% CO2. […] To spectrophotometrically quantitate formation of reduced formazan, plates are centrifuged (500×g, 10 minutes), culture fluids removed by aspiration, and 200 μl of acidified isopropanol (2 ml concentrated HC1/liter isopropanol) added per well. The absorbance of the resulting solutions is measured in a plate reader (Tecan Spectra SLT; TECAN U.S., Research Triangle Park, N.C.) at 570 nm and a 650 nm reference filter. […] The two standard drug controls (indicated above) are included in each assay as a check to monitor the drug sensitivity of each of the cell lines and IC50 values are determined for each drug-cell combination.
(Formazan colour is commonly taken as a measure of viable cells.)

Assay [4] has as its system MCF-7 human breast carcinoma. In words: Cytotoxicity, MTT assay, MCF-7. The assay is classed as cell-based. The settings on record: read-out: IC50 (Std dev) MCF-7. As to the method: as §1
For assay [5], the system named is MCF-7ADR multi-drug resistant (Taxol resistant) human breast carcinoma. In words: Cytotoxicity, MTT assay, MCF-7/ADR. The assay is classed as cell-based. The settings on record: for IC50: Homo sapiens, NCI/ADR-RES, read-out: IC50 (Std dev) MCF-7/ADR; for Resistance, MCF-7/ADR relative to MCF-7: ratio of IC50 values, resistant vs sensitive line; for resistance of MCF-7ADR cells: resistant vs Taxol-sensitive counterpart. As to the method:
(§2) The cytotoxicity of dictyostatin-1 for various Taxol resistant and sensitive cell lines was compared to that of Taxol. The cell lines used were A549 human adenocarcinoma, MCF-7 human breast carcinoma, MCF-7ADR multi-drug resistant (Taxol resistant) human breast carcinoma, MES-SA human uterine carcinoma and MES-SA/DX5 Taxol resistant uterine carcinoma. All cell lines were maintained in Roswell Park Memorial Institute (RPMI) medium 1640 supplemented with 100 U/ml penicillin, […] streptomycin, 60 mg/ml 1-glutamine, 18 mM HEPES, 0.05 mg/ml gentamicin (Life Technologies, Gaithersburg, Md.) and 10% fetal bovine serum and cultured in plastic tissue culture flasks at 37° C. in humidified air containing 5% CO2. Stock cultures of cells were subcultured 1:10 every 3 to 4 days. To assess the antiproliferative effects of agents against the cells, 200 μl cultures (96-well tissue culture plates, Nunc, Denmark) were established at 1×10^5 cells/mL in TCM or TCM containing the test agent at 0.03-5.0 μg/ml. After 72 -h exposures, the effects of dictyostatin-1 and Taxol on cell proliferation were quantitated and IC50 values determined as follows: 75 μl of warm growth media containing 5 mg/ml 3-[4,5-dimethylthiazol-2-yl]-2,5-diphenyltetrazolium bromide (MTT) (M. C. Alley et al. (1988) Cancer Res. 48:589) was added to each well, cultures returned to the incubator, and left undisturbed for 3 hours. To spectrophotometrically quantitate formation of reduced formazan, plates are centrifuged (500×g, 10 minutes), culture fluids removed by aspiration, and 200 μl of acidified isopropanol (2 ml concentrated HC1/liter isopropanol) added per well. The absorbance of the resulting solutions is measured in a plate reader (Tecan Spectra SLT; TECAN U.S., Research Triangle Park, N.C.) at 570 nm and a 650 nm reference filter. The absorbance of tests wells is divided by the absorbance of drug-free wells, and the concentration of agent that results in 50% of the absorbance of untreated cultures (IC50) is determined by linear regression of logit-transformed data (D. J. Finney, Statistical Method in Biological Assay, Third Ed., pp.316-348, Charles Griffin Co., London, 1978). A linear relationship between tumor cell number and formazan production has been routinely observed over the range of cell densities observed in these experiments. The two standard drug controls (indicated above) are included in each assay as a check to monitor the drug sensitivity of each of the cell lines and IC50 values are determined for each drug-cell combination.

The test system of assay [6] is MES-SA human uterine carcinoma. In words: Cytotoxicity, MTT assay, MES-SA. In kind it is cell-based. The settings on record: read-out: IC50 (Std dev) MES-SA. Here is the method: as §1
For assay [7], the system named is MES-SA/DX5 Taxol resistant uterine carcinoma. The assay is described as follows: Cytotoxicity, MTT assay, MES-SA/DX5. The assay is classed as cell-based, human. Particulars: for IC50: Homo sapiens, read-out: IC50 (Std dev) MES-SA/DX5; for Resistance, MES-SA/DX5 relative to MES-SA: ratio of IC50 values, resistant vs sensitive line; for resistance of MES-SA/DX5 cells: resistant vs Taxol-sensitive counterpart. Here is the method:
as §2

In assay [8] the test system is purified bovine brain tubulin. The assay is described as follows: Polymerization of purified tubulin (optical density at 350 nm). In kind it is biochemical. The settings on record: 10 μM. Here is the method:
Polymerization of purified bovine brain tubulin (Cytoskeleton Inc., Denver, Co.) was followed by changes in the optical density of tubulin solutions at 350 nm in a Hitachi U-3010 spectrophotometer equipped with a SPR-10 electronic thermostatted cell holder. Stock solutions of tubulin were diluted on ice in G-PEM buffer (1 mM GTP, 80 mM PIPES (piperazine-N,N′-bis(2-ethanesulfonic acid]sesquisodium salt), 1 mM EGTA (ethylene glycol-bis(b-amine ethyl ether) N,N,N,N′-tetra acetic acid), 0.5 mM magnesium chloride; pH 6.8) to a final concentration of 1 mg/ml. The instrument was zeroed on this solution at 4° C. Dictyostatin-1, was then added to the tubulin to a final concentration of 10 μM and quickly mixed. The polymerization was monitored by observing light scattering changes in optical density at 350 nm using the spectrophotometer. The temperature was varied for a time period of […] beginning at 4° C. for 1 minute, then linearly ramping to 35° C. over 30 minutes, with a hold of one minute at 35° C., then linearly decreasing to 4° C. over 15 minutes, with this temperature being maintained for an additional 15 minutes. Absorbance was measured and recorded over the entire time period.

Assay [9] has as its system cellular proliferation. The settings on record: literature; cited from earlier work.

Consider `C=C/C=C\C(C)C1OC(=O)/C=C\C=C\C(C)C(O)CC(O)/C=C\C(C)C(O)C(C)CC(C)CCC(O)C1C` (stereo not drawn) [Dictyostatin-1], for which, in assay [1], the “percentage of cells in S phase” value came to 30%, the “percentage of cells in G2/M phase” value is 35% and the “percentage of cells comprising the G1 population” value was determined as 36%. The “effect on microtubule network (bundling)” value in assay [2] is reported as “extensive microtubule bundling resulting in almost complete depletion of non-bundled microtubular material in the cytoplasm”. The IC50 in assay [3] (A549, 72 h) came to 0.95 nM. Besides, in assay [4] (MCF7, 72 h), the IC50 stood at 1.5 nM. In [5] (72 h), the IC50 is 20 nM. In assay [5], the “Resistance, MCF-7/ADR relative to MCF-7” value came to 13× and the “resistance of MCF-7ADR cells” value stood at 13 fold. Besides, in assay [6] (72 h), the IC50 stood at 4.1 nM. Further, the IC50 in [7] (MES-SA/Dx5, 72 h) is 11 nM. In assay [7], the “Resistance, MES-SA/DX5 relative to MES-SA” value was 3× and the “resistance of MES-SA/DX5 cells” value came to 3 fold. The “stability of polymerized tubulin on cooling” value in [8] (temperature decreased from 35° C. to 4° C.) was “did not substantially depolymerize upon reduction of the temperature”. In addition, the “induction of tubulin polymerization” value in assay [8] (tubulin 1 mg/ml, temperature ramp 4° C. to 35° C.) is “induced tubulin polymerization with a maximum polymerization level reached at 35 °C”.

Regarding `C=C1C[C@H](C)C[C@@H]2CC=C[C@@H](C/C=C\C(=O)O[C@H]([C@@H](O)/C=C/[C@@H]3CC(C)=CCO3)C[C@@H]3O[C@H]3[C@@H](O)C1)O2` [Laulimalide], the “IC50 values, inhibition of cellular proliferation” value in assay [9] is “low nanomolar range”.

With `CC(=O)O[C@H]1C(=O)[C@@]2(C)[C@H]([C@H](OC(=O)c3ccccc3)[C@]3(O)C[C@H](OC(=O)[C@H](O)[C@@H](NC(=O)c4ccccc4)c4ccccc4)C(C)=C1C3(C)C)[C@]1(OC(C)=O)CO[C@@H]1C[C@@H]2O` [Taxol], in [1], the “percentage of cells in S phase” value was 27%, the “percentage of cells in G2/M phase” value is on record as 47% and the “percentage of cells comprising the G1 population” value was determined as 26%. Moreover, in assay [2], the “effect on microtubule network (bundling)” value is on record as “characteristic formation of microtubular “bundles” but also a substantial amount of “non-bundled” microtubular material still remained in the cytoplasm”. The IC50 in [3] (A549, 72-h exposure, MTT) turned out to be 5.13 nM. Further, the IC50 in [4] (MCF7, 72-h exposure, MTT) was found to be 2.5 nM. Further, in [5] (72-h exposure, MTT), the IC50 amounted to 3330 nM. Moreover, in assay [5], the “Resistance, MCF-7/ADR relative to MCF-7” value is recorded as 1332× and the “resistance of MCF-7ADR cells” value is 1332 fold. Besides, in assay [6] (72-h exposure, MTT), the IC50 was determined as 3.3 nM. The IC50 in assay [7] (MES-SA/Dx5, 72-h exposure, MTT) is 1650 nM. Also, in assay [7], the “Resistance, MES-SA/DX5 relative to MES-SA” value was 501× and the “resistance of MES-SA/DX5 cells” value turned out to be 501 fold.

As for `C=C1CC(C)C[C@@H]2CC=C[C@@H](C/C=C\C(=O)O[C@@H]3C[C@H](O[C@@H]3/C=C/[C@H]3CC(C)=CCO3)[C@H](O)C(O)C1)O2` (stereo partly drawn) [isolaulimalide], in assay [9], the “IC50 values, inhibition of cellular proliferation” value was “low micromolar range”.
